Reference: patent US20230355578A1, “PHARMACEUTICAL COMBINATIONS OF STATINS AND FIBRATES FOR THE TREATMENT AND PREVENTION OF […] AND CARDIOVASCULAR DISEASE” (LABORATORIOS SILANES S.A. DE C.V., priority 2020, published 2023)
Like-named read-outs stand apart in the source and are kept apart here.

Key:
[1] = cited from earlier work
OATP1B1 = biological target: T1, OATP1B1 (Homo sapiens, UniProt Q9Y6L6); conditions: Wong, 2006, Yamazaki, 2005; cited from earlier work
T1 sequence (Q9Y6L6 1-691): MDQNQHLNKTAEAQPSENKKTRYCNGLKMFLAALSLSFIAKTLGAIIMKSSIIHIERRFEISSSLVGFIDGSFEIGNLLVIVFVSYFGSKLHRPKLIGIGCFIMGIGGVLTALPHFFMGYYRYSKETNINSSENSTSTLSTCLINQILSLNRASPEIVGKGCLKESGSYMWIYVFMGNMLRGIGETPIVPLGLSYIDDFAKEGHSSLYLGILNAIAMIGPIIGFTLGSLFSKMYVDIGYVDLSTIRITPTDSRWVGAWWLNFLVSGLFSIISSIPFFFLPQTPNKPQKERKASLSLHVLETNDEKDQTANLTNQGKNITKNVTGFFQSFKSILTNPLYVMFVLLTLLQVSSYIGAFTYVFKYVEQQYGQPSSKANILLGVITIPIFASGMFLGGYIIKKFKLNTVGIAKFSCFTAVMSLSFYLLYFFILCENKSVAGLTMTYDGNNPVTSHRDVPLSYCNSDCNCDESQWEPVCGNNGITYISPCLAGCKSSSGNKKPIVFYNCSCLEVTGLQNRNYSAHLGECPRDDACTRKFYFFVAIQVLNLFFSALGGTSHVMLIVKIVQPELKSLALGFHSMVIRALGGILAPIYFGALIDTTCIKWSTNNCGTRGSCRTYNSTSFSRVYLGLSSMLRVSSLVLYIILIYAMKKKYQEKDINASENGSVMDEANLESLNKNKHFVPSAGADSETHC

[2] = Particle size distribution by laser beam diffraction; assay type: physicochemical
Description: The determination of the particle size distribution by laser beam diffraction for micronized fenofibrate was carried out using a DPS module in a particle size analyzer.
Determination of particle size distribution by laser beam diffraction was carried out for micronized fenofibrate by placing 0.5 g of the raw material in a sample holder and using a DPS module in the particle size analyzer to obtain an obscuration of 4-7%. The determination is made in duplicate.

cytochrome P450 = conditions: Wong, 2006, Yamazaki, 2005; cited from earlier work
P-gp = P-gp (Homo sapiens, UniProt P08183); conditions: Wong, 2006, Yamazaki, 2005; cited from earlier work
Chain of P-gp (P08183 whole entry): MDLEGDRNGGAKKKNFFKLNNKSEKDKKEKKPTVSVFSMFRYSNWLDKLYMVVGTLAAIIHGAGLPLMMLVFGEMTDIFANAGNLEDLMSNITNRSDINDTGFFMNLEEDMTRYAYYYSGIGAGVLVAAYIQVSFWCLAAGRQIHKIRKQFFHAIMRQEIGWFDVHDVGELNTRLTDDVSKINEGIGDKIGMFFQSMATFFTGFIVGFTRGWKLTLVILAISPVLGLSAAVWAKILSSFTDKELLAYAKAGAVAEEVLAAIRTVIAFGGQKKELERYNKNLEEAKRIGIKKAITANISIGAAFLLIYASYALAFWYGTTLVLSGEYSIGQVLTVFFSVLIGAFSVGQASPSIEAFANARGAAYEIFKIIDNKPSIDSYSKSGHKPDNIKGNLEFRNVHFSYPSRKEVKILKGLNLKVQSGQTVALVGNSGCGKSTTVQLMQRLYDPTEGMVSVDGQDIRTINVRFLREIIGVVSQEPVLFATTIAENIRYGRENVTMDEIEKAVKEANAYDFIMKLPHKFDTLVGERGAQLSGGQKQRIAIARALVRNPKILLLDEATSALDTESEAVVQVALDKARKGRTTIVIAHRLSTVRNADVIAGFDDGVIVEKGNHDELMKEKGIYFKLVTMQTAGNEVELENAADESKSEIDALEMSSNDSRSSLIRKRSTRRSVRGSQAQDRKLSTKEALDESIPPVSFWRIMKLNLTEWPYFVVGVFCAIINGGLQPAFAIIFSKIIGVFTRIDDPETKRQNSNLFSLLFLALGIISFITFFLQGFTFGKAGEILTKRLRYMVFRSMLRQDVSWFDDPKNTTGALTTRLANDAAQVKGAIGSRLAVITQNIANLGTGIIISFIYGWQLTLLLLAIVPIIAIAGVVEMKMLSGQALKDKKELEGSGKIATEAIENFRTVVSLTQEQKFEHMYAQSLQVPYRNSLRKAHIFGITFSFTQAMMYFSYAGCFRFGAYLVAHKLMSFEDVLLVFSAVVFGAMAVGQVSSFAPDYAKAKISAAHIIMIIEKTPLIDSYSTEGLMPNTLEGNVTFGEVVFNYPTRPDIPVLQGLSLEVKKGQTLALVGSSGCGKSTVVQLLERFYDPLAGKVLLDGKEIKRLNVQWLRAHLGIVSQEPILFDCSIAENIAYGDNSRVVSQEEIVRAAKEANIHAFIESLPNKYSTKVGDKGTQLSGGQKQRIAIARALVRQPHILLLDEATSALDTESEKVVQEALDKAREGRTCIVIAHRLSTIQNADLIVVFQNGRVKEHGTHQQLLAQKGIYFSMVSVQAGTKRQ

Row | Compound | concentrations reported in the literature ([1]; Chou, 2013) | drug-drug interaction potential by inhibition of OATP1B1 (OATP1B1) | particle size distribution (100%) [2] | particle size distribution (d10) [2] | particle size distribution (d50) [2] | particle size distribution (d90) [2] | metabolism via cytochrome P450 (cytochrome P450) | inhibition of P-gp-mediated transport (P-gp) | concentrations reported in the literature ([1]; Back, 2018, Moffat, 2011)
1 | CC(C)c1c(C(=O)Nc2ccccc2)c(-c2ccccc2)c(-c2ccc(F)cc2)n1CC[C@@H](O)C[C@@H](O)CC(=O)O [atorvastatin] | 2.5 to 50.1 ng/mL | – | – | – | – | – | – | – | –
2 | CC(C)OC(=O)C(C)(C)Oc1ccc(C(=O)c2ccc(Cl)cc2)cc1 [fenofibrate] | – | do not have a potential to cause a clinically significant drug-drug interaction by inhibition of OATP1B1 | less than 30 μm | ≤ 0.95 μm | ≤ 5.35 μm | ≤ 11.28 μm | are not metabolized via cytochrome P450 | do not significantly inhibit P-gp-mediated transport | –
3 | CC(C)(Oc1ccc(C(=O)c2ccc(Cl)cc2)cc1)C(=O)O [fenofibric acid] | – | do not have a potential to cause a clinically significant drug-drug interaction by inhibition of OATP1B1 | – | – | – | – | are not metabolized via cytochrome P450 | do not significantly inhibit P-gp-mediated transport | 3.17-30 μm/mL
